Counter-ions that a name gives are not always drawn.
Assays:
[1] = Ketorolac enantiomers in mouse blood/serum by HPLC after two-week treatment; format: in vivo, mice
From the text: For two-week tumor studies, 1 × 10^6 non-treated SKOV3ip-GFP cells were i.p. injected. All mice started R-ketorolac treatment one day prior to cell injection and continued treatment until conclusion of the study 14 days later. Mice were imaged using a Light Tools imaging system (Synopsys Optical Solutions, Westminster CO) with long pass GFP filters. Three images per mouse were captured to ensure all tumors were counted. Green fluorescent tumors were identified and counted in the peritoneal cavity as single tumors if there was a distinct border of non-fluorescent tissue. […] Blood was collected via cardiac puncture and ketorolac enantiomer concentrations were measured by HPLC analysis as described in Supplemental Methods (Additional File 1: Supplemental Methods). […]
(§1) SKOV3ip cells were modified to express GFP-Rac1 by transfection with pcDNA3-EGFP-Rac1-wt (Catalog # 12980, Addgene) as described for SKOV3ip-GFP cells under Methods. Rac1 overexpression quantification and verification was completed by western blot and qPCR. […]
(§2) Omental tissue was harvested and stored on ice in PBS for no more than 1 hour before analysis. Omenta were blotted dry on lab tissue and weight was measured using an analytical balance (Denver Instruments Company, A -160). […]
Samples were then centrifuged at 4000x g for 10 minutes at 4°C. […] Ketorolac was detected using a UV spectrometer set at UV310. […]

SKOV3ip-GFP cells = assay: Short-term omental engraftment assay; format: in vivo, mice; details: 18 h post i.p. injection; 1 mg/kg oral every 12 h; cells pretreated with 10 μM; vs placebo
Procedure: Mice were conditioned to placebo pills for two days prior to drug treatment. […] Consumption was confirmed by visual observation. […] Omenta were harvested from animals 18 h post-injection and placed in ice cold 1X phosphate-buffered saline (PBS) until imaged with an Olympus IX70 inverted fluorescent microscope and Olympus CellSens software. SKOV3ip-GFP cells were subsequently digested from the omentum using 10% NP-40 substitute (Sigma, cat# 74385) in 1X PBS for 30 min at 37 °C. Omenta were gently homogenized using disposable micropestles, centrifuged, and fluorescence intensity was measured using a […] Spectramax M2 plate spectrophotometer (ex:480 nm, em:520 nm).

[2] = Enantiomer stability of ketorolac in the oral dosage form (HPLC); format: physicochemical; details: transgenic dough pills stored at 4 °C
Procedure: As an alternative to gavage for oral delivery, drug was administered in pills formed from transgenic dough (BioServ, Flemington, NJ, cat #S3472). […] Briefly, R-Ketorolac was dissolved in 100% ethanol to a concentration of 5 mg/ml. Bromophenol blue was added to solutions at a final concentration of 0.1% as an aid to ensure even distribution of drug into the dough. Placebo pills were made using an equivalent volume of 100% ethanol containing 0.1% bromophenol blue. Dough was then pressed using 100 mg pill forms (Gallipot, St. Paul, MN). Pills were allowed to dry at room temperature overnight then removed from the forms and stored at 4 °C. Ketorolac, as racemic compound or individual enantiomer, was stable for at least 3 months in the pills as determined by high performance liquid chromatography (HPLC) (Additional File 2: Figure S1).
Cell Culture and Reagents
as §1, §2

[3] = humans, multiple dosing regimens over 5 days; cited from earlier work

| SMILES | Accumulation with repeated dosing ([1]; mice, daily dosing 14 days) | concentration at 14 day ([1]; mouse, serum, at conclusion of chronic administration (14 day) tumor study, 1 mg/kg twice daily oral, read-out: Steady state blood concentration of R-ketorolac) [ng/mL] | Omental engraftment (GFP fluorescence, omental localization of SKOV3ip-GFP cells) (SKOV3ip-GFP cells) | Stability in pills [2] | Accumulation of enantiomers with multiple dosing [3] |
| --- | --- | --- | --- | --- | --- |
| O=C(c1ccccc1)c1ccc2n1CC[C@H]2C(=O)O [R-ketorolac] | does not appear to accumulate with repeated dosing | ~1400 | decreased the omental localization of SKOV3ip-GFP cells | – | – |
| O=C(c1ccccc1)c1ccc2n1CCC2C(=O)O (centres unmarked) [R−/S-ketorolac, ketorolac tromethamine salt] | – | – | – | at least 3 months | did not result in accumulation of either enantiomer |
